From patent US9296741B2, “Bromodomain inhibitors” (priority 2012, dated 2016)
Like-named read-outs stand apart in the source and are kept apart here.

Assays:
[1] = system: OPM-2 human multiple myeloma xenograft tumors; assay: animal or person; conditions: Mus musculus; for change in vivo at 1 mg/kg / inhibition in vivo at 1 mg/kg: 1 mg/kg/day; for change in vivo at 3 mg/kg / inhibition in vivo at 3 mg/kg: 3 mg/kg/day
[2] = Rat liver microsome stability assay; format: in vitro ADME; conditions: rat liver microsomes (male Sprague-Dawley), 0.5 μM test compound, 0.25 mg/mL microsomal protein, pH 7.4, 37° C.; read-out: Stability in rat liver microsomes (t1/2 in minutes)
[3] = Mouse liver microsome stability assay; format: in vitro ADME; conditions: male, CD1, mouse, microsomes, pH 7.4
[4] = target: human BRD4 second bromodomain (BDII_E352-M457) (Homo sapiens (Human), UniProt O60885); assay: TR-FRET bromodomain binding assay, BRD4 second bromodomain
[5] = system: breast cancer cell line MX-1; assay: MX-1 cell line proliferation assay; format: cell-based, human; conditions: Homo sapiens, MX1, 72 h; MX-1 cells, 3-day proliferation, Cell Titer Glo; read-out: Cellular proliferation: EC50
[6] = system: LPS induced IL-6 production; assay: LPS (lipopolysaccharide) induced IL-6 production mouse assay; format: in vivo; conditions: Mus musculus, read-out: Inhibition of LPS induced IL-6 production in Mice, % inhibition at 3 mg/kg; 3 mg/kg oral, 1 h before LPS; serum IL-6 2 h after LPS
[7] = Human liver microsome stability assay; format: in vitro ADME; conditions: both sexes, human, microsomes, pH 7.4
[8] = target: human BRD4 first bromodomain (BDI_K57-E168) (Homo sapiens (Human), UniProt O60885); assay: TR-FRET bromodomain binding assay, BRD4 first bromodomain
[9] = OPM-2, po, read-out: % TGD (tumor growth delay), OPM-2, PO, QDx21, vehicle A
[10] = OPM-2, po, read-out: % TGI (tumor growth inhibition), OPM-2, PO, QDx21, vehicle A

Row | SMILES | half-life at 0.5 μM [2] | half-life at 0.5 μM [3] | Ki [4] | EC50 [5] | half-life at 0.5 μM [7] | Ki [8] | change in vivo at 1 mg/kg ([1]; OPM-2, iv, read-out: % TGD (tumor growth delay), OPM-2, IV, Q4Dx3, vehicle B) | inhibition in vivo at 1 mg/kg ([1]; OPM-2, iv, read-out: % TGI (tumor growth inhibition), OPM-2, IV, Q4Dx3, vehicle B) | change in vivo at 1 mg/kg [1, 9] | change in vivo at 3 mg/kg [1, 9] | inhibition in vivo at 1 mg/kg [1, 10] | inhibition in vivo at 3 mg/kg [1, 10] | inhibition in vivo at 3 mg/kg [6] | change in vivo at 6 mg/kg ([1]; OPM-2, po, read-out: % TGD (tumor growth delay), OPM-2, 6 mg/kg/day, PO, QDx21, vehicle A) | change in vivo at 20 mg/kg ([1]; OPM-2, po, read-out: % TGD (tumor growth delay), OPM-2, 20 mg/kg/day, PO, QDx21, vehicle A) | inhibition in vivo at 6 mg/kg ([1]; OPM-2, po, read-out: % TGI (tumor growth inhibition), OPM-2, 6 mg/kg/day, PO, QDx21, vehicle A) | inhibition in vivo at 20 mg/kg ([1]; OPM-2, po, read-out: % TGI (tumor growth inhibition), OPM-2, 20 mg/kg/day, PO, QDx21, vehicle A) | change in vivo at 1.25 mg/kg ([1]; OPM-2, po, read-out: % TGD (tumor growth delay), OPM-2, 1.25 mg/kg/day, PO, QDx21, vehicle A) | inhibition in vivo at 1.25 mg/kg ([1]; OPM-2, po, read-out: % TGI (tumor growth inhibition), OPM-2, 1.25 mg/kg/day, PO, QDx21, vehicle A)
1 | CC(C)C[C@H](NC(=O)[C@H](Cc1ccccc1)NC(=O)c1cnccn1)B(O)O [Bortezomib] |  |  |  |  |  |  | 93% | 80% |  |  |  |  |  |  |  |  |  |  | 
2 | Cn1cc(-c2cc(S(N)(=O)=O)ccc2Oc2ccc(F)cc2F)c2cc[nH]c2c1=O [Example 146, 4-(2,4-difluorophenoxy)-3-(6-methyl-7-oxo-6,7-dihydro-1H-pyrrolo[2,3-c]pyridin-4-yl)benzenesulfonamide] | 52 min | 55 min | 1.9 nM | 60.9 nM | > 120 min | 7.5 nM |  |  | 35% | 78% | 39% | 76% | 80% |  |  |  |  |  | 
3 | CCS(=O)(=O)c1ccc(OC2CCC(F)(F)CC2)c(-c2cn(C)c(=O)c3[nH]ccc23)c1 [Example 169, 4-{2-[(4,4-difluorocyclohexyl)oxy]-5-(ethylsulfonyl)phenyl}-6-methyl-1,6-dihydro-7H-pyrrolo[2,3-c]pyridin-7-one] | 34 min | 38 min | 0.86 nM | 5.3 nM | 86 min | 0.88 nM |  |  |  | 77% |  | 69% | 67% |  |  |  |  |  | 
4 | CC(O)c1cc2c(-c3cc(S(C)(=O)=O)ccc3Oc3ccc(F)cc3F)cn(C)c(=O)c2[nH]1 (stereo not drawn) [Example 278, 4-[2-(2,4-difluorophenoxy)-5-(methylsulfonyl)phenyl]-2-(1-hydroxyethyl)-6-methyl-1,6-dihydro-7H-pyrrolo[2,3-c]pyridin-7-one] | > 120 min | > 120 min | 11.2 nM | 135 nM | > 120 min | 12.1 nM |  |  |  |  |  |  | 51% |  |  |  |  |  | 
5 | Cn1cc(-c2cc(S(C)(=O)=O)cnc2Oc2ccc(F)cc2F)c2cc[nH]c2c1=O [Example 288, 4-[2-(2,4-difluorophenoxy)-5-(methylsulfonyl)pyridin-3-yl]-6-methyl-1,6-dihydro-7H-pyrrolo[2,3-c]pyridin-7-one] | > 120 min | > 120 min | 53.9 nM | 173 nM | 85 min | 71.9 nM |  |  |  |  |  |  | 60% |  |  |  |  |  | 
6 | Cn1cc(-c2cc(S(=O)(=O)C3CC3)ccc2Oc2ccc(F)cc2F)c2cc[nH]c2c1=O [Example 290, 4-[5-(cyclopropylsulfonyl)-2-(2,4-difluorophenoxy)phenyl]-6-methyl-1,6-dihydro-7H-pyrrolo[2,3-c]pyridin-7-one] | 48 min | 52 min | 1.9 nM | 36.2 nM | 73 min | 5 nM |  |  |  |  |  |  | 64% |  |  |  |  |  | 
7 | CCS(=O)(=O)c1cnc(Oc2ccc(F)cc2F)c(-c2cn(C)c(=O)c3[nH]ccc23)c1 [Example 294, 4-[2-(2,4-difluorophenoxy)-5-(ethylsulfonyl)pyridin-3-yl]-6-methyl-1,6-dihydro-7H-pyrrolo[2,3-c]pyridin-7-one] | > 120 min | > 120 min | 21.7 nM | 332 nM | > 120 min | 47.9 nM |  |  |  |  |  |  | 79% |  |  |  |  |  | 
8 | CCS(=O)(=O)c1ccc(Oc2ccc(C#N)cc2)c(-c2cn(C)c(=O)c3[nH]ccc23)c1 [Example 304, 4-[4-(ethylsulfonyl)-2-(6-methyl-7-oxo-6,7-dihydro-1H-pyrrolo[2,3-c]pyridin-4-yl)phenoxy]benzonitrile] | 65 min | 72 min | 21.8 nM | 32.3 nM | > 120 min | 9 nM |  |  |  |  |  |  | 67% |  |  |  |  |  | 
9 | Cn1cc(-c2cc(CS(C)(=O)=O)cnc2Oc2ccc(F)cc2F)c2cc[nH]c2c1=O [Example 311, 4-{2-(2,4-difluorophenoxy)-5-[(methylsulfonyl)methyl]pyridin-3-yl}-6-methyl-1,6-dihydro-7H-pyrrolo[2,3-c]pyridin-7-one] | 83 min | > 120 min | 4.5 nM | 22.4 nM | > 120 min | 14.8 nM |  |  |  |  |  |  | 74% |  |  |  |  | 90% | 60%
10 | Cn1cc(-c2cc(CS(C)(=O)=O)ccc2Oc2ccc(F)cc2F)c2cn[nH]c2c1=O [Example 321, 4-{2-(2,4-difluorophenoxy)-5-[(methylsulfonyl)methyl]phenyl}-6-methyl-1,6-dihydro-7H-pyrazolo[3,4-c]pyridin-7-one] | 103 min | > 120 min | 32.1 nM | 34.4 nM | > 120 min | 33.4 nM |  |  |  |  |  |  | 63% |  |  |  |  |  | 
11 | CCS(=O)(=O)c1ccc(N2CCCC2)c(-c2cn(C)c(=O)c3[nH]ccc23)c1 [Example 330, 4-[5-(ethylsulfonyl)-2-(pyrrolidin-1-yl)phenyl]-6-methyl-1,6-dihydro-7H-pyrrolo[2,3-c]pyridin-7-one] | 12 min | 28 min | 4.6 nM | 30.6 nM | 29.9 min | 50.9 nM |  |  |  |  |  |  | 45% |  |  |  |  |  | 

The next lines start with results.

Row | half-life at 0.5 μM [2] | half-life at 0.5 μM [3] | Ki [4] | EC50 [5] | half-life at 0.5 μM [7] | Ki [8] | SMILES | change in vivo at 1 mg/kg ([1]; OPM-2, iv, read-out: % TGD (tumor growth delay), OPM-2, IV, Q4Dx3, vehicle B) | inhibition in vivo at 1 mg/kg ([1]; OPM-2, iv, read-out: % TGI (tumor growth inhibition), OPM-2, IV, Q4Dx3, vehicle B) | change in vivo at 1 mg/kg [1, 9] | change in vivo at 3 mg/kg [1, 9] | inhibition in vivo at 1 mg/kg [1, 10] | inhibition in vivo at 3 mg/kg [1, 10] | inhibition in vivo at 3 mg/kg [6] | change in vivo at 6 mg/kg ([1]; OPM-2, po, read-out: % TGD (tumor growth delay), OPM-2, 6 mg/kg/day, PO, QDx21, vehicle A) | change in vivo at 20 mg/kg ([1]; OPM-2, po, read-out: % TGD (tumor growth delay), OPM-2, 20 mg/kg/day, PO, QDx21, vehicle A) | inhibition in vivo at 6 mg/kg ([1]; OPM-2, po, read-out: % TGI (tumor growth inhibition), OPM-2, 6 mg/kg/day, PO, QDx21, vehicle A) | inhibition in vivo at 20 mg/kg ([1]; OPM-2, po, read-out: % TGI (tumor growth inhibition), OPM-2, 20 mg/kg/day, PO, QDx21, vehicle A) | change in vivo at 1.25 mg/kg ([1]; OPM-2, po, read-out: % TGD (tumor growth delay), OPM-2, 1.25 mg/kg/day, PO, QDx21, vehicle A) | inhibition in vivo at 1.25 mg/kg ([1]; OPM-2, po, read-out: % TGI (tumor growth inhibition), OPM-2, 1.25 mg/kg/day, PO, QDx21, vehicle A)
12 | > 120 min | > 120 min | 9.7 nM | 24.3 nM | > 120 min | 4.1 nM | Cn1cc(-c2cc(S(C)(=O)=O)ccc2OCC2CC2)c2cc[nH]c2c1=O [Example 158, 4-[2-(cyclopropylmethoxy)-5-(methylsulfonyl)phenyl]-6-methyl-1,6-dihydro-7H-pyrrolo[2,3-c]pyridin-7-one] |  |  |  |  |  |  |  | 34% | 72% | 53% | 78% |  | 
13 | 31 min | > 120 min | 1.1 nM | 11.3 nM | > 120 min | 0.86 nM | CCS(=O)(=O)c1ccc(NCC2CC2)c(-c2cn(C)c(=O)c3[nH]ccc23)c1 [Example 200, 4-{2-[(cyclopropylmethyl)amino]-5-(ethylsulfonyl)phenyl}-6-methyl-1,6-dihydro-7H-pyrrolo[2,3-c]pyridin-7-one] |  |  | 44% | 82% | 50% | 80% | 75% |  |  |  |  |  | 
14 | 36 min | 37 min | 1.5 nM | 18 nM | 56 min | 1.5 nM | CNS(=O)(=O)c1ccc(OCC2CC2)c(-c2cn(C)c(=O)c3[nH]ccc23)c1 [Example 250, 4-(cyclopropylmethoxy)-N-methyl-3-(6-methyl-7-oxo-6,7-dihydro-1H-pyrrolo[2,3-c]pyridin-4-yl)benzenesulfonamide] |  |  |  | 29% |  | 42% |  |  |  |  |  |  | 
15 | 19 min | 11 min | 5.4 nM | 74.6 nM | 10 min | 12.1 nM | Cn1cc(-c2cc(S(=O)(=O)N3CCOCC3)ccc2OCC2CC2)c2cc[nH]c2c1=O [Example 286, 4-[2-(cyclopropylmethoxy)-5-(morpholin-4-ylsulfonyl)phenyl]-6-methyl-1,6-dihydro-7H-pyrrolo[2,3-c]pyridin-7-one] |  |  |  |  |  |  | 57% |  |  |  |  |  | 
16 | 10 min | 16 min | 6.5 nM | 29.3 nM | 20 min | 49.9 nM | Cn1cc(-c2cc(S(=O)(=O)N3CC(F)(F)C3)ccc2OCC2CC2)c2cc[nH]c2c1=O [Example 308, 4-{2-(cyclopropylmethoxy)-5-[(3,3-difluoroazetidin-1-yl)sulfonyl]phenyl}-6-methyl-1,6-dihydro-7H-pyrrolo[2,3-c]pyridin-7-one] |  |  |  |  |  |  | 48% |  |  |  |  |  | 
